Values quoted from earlier work as cited in US12357578B2, “Ibuprofen and famotidine tablet” (APPCO PHARMA LLC, priority 2020, dated 2025).

## NC(N)=Nc1nc(CSCCC(N)=NS(N)(=O)=O)cs1 [Famotidine]
ethanol
  Solubility in ethanol (in words): practically insoluble
Glacial acetic acid
  Solubility in glacial acetic acid (in words): freely soluble
methanol
  Solubility in methanol (in words): slightly soluble
water
  Solubility in water (in words): very slightly soluble

## CC(C)Cc1ccc(C(C)C(=O)O)cc1 (racemic) [Ibuprofen, (±)-2-(p-isobutylphenyl) propionic acid]
Organic solvents such as ethanol and acetone
  Solubility in organic solvents (in words): readily soluble
water
  Solubility in water: < 1000 µg/mL
  Solubility in water (in words): very slightly soluble
